According to US9096687B2, “Inhibition of inflammation using antagonists of MUC1” (DANA-FARBER CANCER INSTITUTE, INC., priority 2009, dated 2015):
Square brackets hold non-standard residues; d marks the D form. Ends that are not written are not given here.

Assays:
[1] = system: ZR-75-1 breast carcinoma cells; test: Proliferation of ZR-75-1 breast carcinoma cells (trypan blue exclusion); type: cell-based, Human; conditions: 5 μM every day for 4 days
Description: FIG. 17: Effect of different MUC1-CD CQC-region peptides on the growth of hormone-dependent breast carcinoma cells. To determine whether exposure to different MUC1-CD CQC-region containing peptides affect growth, ZR-75-1 breast carcinoma cells were treated with 5 μM of different peptides for 4 days and monitored for cell proliferation.
FIG. 21: Effect of Shorter GO-203 peptides on proliferation of ZR-75-1 Breast Cancer Cells. Human ZR-75-1 breast cancer cells were grown in RPMI1640 supplemented with 10% heat-inactivated fetal bovine serum, 100 units/ml penicillin, 100 μg/ml streptomycin. Cells were treated with different peptides at 5 μM every day for four days and cell viability was determined by trypan blue exclusion.
Multiple tumor cell lines (ZR-75-1 Hormone-dependent Breast Carcinoma; MDA-MB-231 Triple-Negative Breast Carcinoma; A549 Non-small Cell Lung Carcinoma; H-1975 Non-small Cell Lung Carcinoma) were grown in RPMI-1640 supplemented with 10% heat-inactivated fetal bovine serum, 100 units/mL penicillin and 100 μg/mL streptomycin and 2 mmol/L L-glutamine. Cells were treated separately with 5 μM of different analogs of GO-203 (FIG. 15) for 3 to 7 days and viability was determined by trypan blue exclusion. The proliferation of different cell lines was compared with cells treated with vehicle only.

severe sepsis = conditions: decreased from about 31%; cited from earlier work
[2] = system: H-1975 non-small cell lung carcinoma cell line; conditions: H-1975 cells, 5 μM, 3 days
Description: H-1975 non-small cell lung carcinoma cell line was grown in DMEM with 10% heat-inactivated fetal bovine serum with 100 units/mL penicillin, 100 μg/ml streptomycin and 2 mmol/L L-glutamine. Cells were re-seeded one day before treatments. Cells were treated with 5 μM GO-200-2B for 3 days and cell viability was determined by trypan blue exclusion.
Moreover, another non-small cell lung carcinoma cell line, H-1975, was treated with 5 μM GO-200-2B for 3 days and monitored for cell growth as well as cell death.

[3] = system: carcinoma cells overexpressing MUC1; test: Growth arrest and necrosis of cells exposed to peptide; type: cell-based; conditions: for growth arrest and induction of necrosis: exposure of cells
Description: (§1) Previous Studies. Overexpression of MUC1 is sufficient for the induction of anchorage-independent growth and tumorigenicity (Li et al., 2003a; Huang et al., 2003; Huang et al., 2005). […] MUC1 forms oligomers and the CQC motif is necessary for this oligomerization (Leng et al., 2007). Moreover, oligomer formation is necessary for targeting of the MUC1-C subunit to the nucleus (Leng et al., 2007). The inventors synthesized a MUC1-derived peptide that contains the CQC motif and a poly-Arg cell delivery domain for entry into cells.

[4] = system: MUC1-C and NF-κB p65 occupancy of the NF-κB binding motif in the MUC1 promoter; test: ChIP of MUC1 promoter NF-κB binding motif in TNFα-stimulated MCF-10A cells; conditions: 5 μM peptide added each 24 h for 72 h
Description: MCF-10A cells were left untreated or stimulated with TNFα in the presence of 5 μM MUC1/CQC or MUC1/AQA peptide added each 24 h for 72 h. […] (FIGS. 6B and 6C) MCF-10A cells were left untreated or stimulated with TNFα in the presence of 5 μM MUC1/CQC or MUC1/AQA peptide added each 24 h for 72 h. Soluble chromatin was precipitated with anti-MUC1-C (left) or anti-p65 (right) and then analyzed for MUC1 NF-κB binding motif promoter sequences (FIG. 6B).
ChIP Assays. Soluble chromatin was prepared as described (Wei et al., 2006) and precipitated with anti-p65, anti-MUC1-C or a control non-immune IgG. […] For PCR, 2 μl from a 50 μl DNA extraction was used with 25-35 cycles of amplification.

tumor growth = test: Administration to tumor bearing mice
Description: as §1

[5] = target: T1, IL-6-induced interaction between MUC1-C and STAT3 (Homo sapiens, UniProt P15941); test: Anti-STAT3 co-immunoprecipitation from IL-6-stimulated MCF-10A cells; type: cell-based; parameters: dose or concentration left out as unconfirmed; conditions: peptide added each 24 h for 72 h
T1 construct: C-terminal subunit (MUC1 C-ter, MUC1-C), which includes a 58 amino acid extracellular region; endogenous in cells; host or cells: MCF-10A
T1 sequence (P15941 1098-1255 limits assumed): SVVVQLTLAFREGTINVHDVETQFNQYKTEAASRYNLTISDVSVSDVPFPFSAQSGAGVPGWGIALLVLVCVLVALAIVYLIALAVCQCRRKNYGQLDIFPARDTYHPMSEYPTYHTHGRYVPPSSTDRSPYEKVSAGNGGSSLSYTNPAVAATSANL

[6] = target: T2, interaction between MUC1-CD and STAT3 (Homo sapiens, UniProt P15941); test: In vitro binding of GST-STAT3 to purified MUC1-CD; conditions: 1 h at room temperature
T2 construct: a GST fusion protein containing the 72 amino acid MUC1-CD; GST (cleaved yes); made in house
T2 sequence (P15941 1184-1255): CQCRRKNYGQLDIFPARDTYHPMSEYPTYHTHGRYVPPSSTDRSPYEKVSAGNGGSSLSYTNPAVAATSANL

[7] = system: MUC1-C and STAT3 occupancy of the MUC1 promoter; test: Constitutive occupancy of the MUC1 promoter in breast cancer cells; type: cell-based
Description: (§2) MUC1-C Promotes STAT3-Mediated Transcription. […] In concert with these observations, silencing MUC1 in breast cancer cells was associated with decreases in (i) constitutive STAT3 occupancy on the STAT binding site, and (ii) constitutive activation of the MUC1 promoter. To provide further support for an auto-inductive loop, studies were performed with GO-201, an inhibitor of MUC1-C oligomerization (Raina, 2009). […] Moreover, GO-201 blocked IL-6 induced activation of the MUC1 promoter. […] These findings thus provide support for the potential importance of the MUC1-C-STAT3 interaction in targeting STAT3 to the MUC1 promoter and promoting activation of the MUC1 gene in an auto-inductive loop (FIG. 7D).

[8] = target: T3, interaction between MUC1-CD and NF-κB p65 (Homo sapiens, UniProt P15941); test: In vitro binding of GST-MUC1-CD to purified NF-κB p65 (glutathione bead adsorbates, anti-p65 immunoblot); conditions: 1 h at room temperature
T3 construct: a GST fusion protein containing the 72 amino acid MUC1-CD; made in house
T3 sequence (P15941 1184-1255): T2 sequence (P15941 1184-1255)
Description: In Vitro Binding Assays. GST, GST-MUC1-CD, GST-MUC1-CD(1-45) and GST-MUC1-CD(46-72) were prepared as described (Ahmad et al., 2007) and incubated with p65 and certain p65 deletion mutants. Purified GST-MUC1-CD was cleaved with thrombin to remove the GST moiety. GST-IκBα (Millipore, Billerica, Mass.) was incubated with p65(186-306) for 2 h at 25° C. in the absence and presence of purified MUC1-CD. Adsorbates to glutathione-conjugated beads were analyzed by immunoblotting.

MUC1-CD oligomerization = target: T4, MUC1-CD oligomerization (Homo sapiens, UniProt P15941); test: Oligomerization of MUC1-CD in vitro; type: biochemical
T4 construct: contains a 72-amino acid cytoplasmic domain (MUC1-CD)
T4 sequence (P15941 1184-1255): T2 sequence (P15941 1184-1255)
Description: as §1

[9] = target: T5, TNFα-induced interaction between MUC1-C and NF-κB p65 (Homo sapiens, UniProt P15941); test: Anti-p65 co-immunoprecipitation from TNFα-stimulated MCF-10A cells; type: cell-based; conditions: 5 μM peptide added each 24 h for 72 h
T5 construct: C-terminal subunit (MUC1 C-ter, MUC1-C), which includes a 58 amino acid extracellular region; endogenous in cells; host or cells: MCF-10A
T5 sequence (P15941 1098-1255 limits assumed): T1 sequence (P15941 1098-1255 limits assumed)
Description: Cell Culture. Human ZR-75-1 breast cancer and U-937 leukemia cells were grown in RPMI 1640 medium containing 10% heat-inactivated fetal bovine serum (FBS), 100 units/ml penicillin, 100 μg/ml streptomycin and 2 mM L-glutamine. Human HeLa cervical and MCF-7 breast carcinoma cells were grown in Dulbecco's modified Eagle's medium with 10% FBS, antibiotics and L-glutamine. Human MCF-10A breast epithelial cells were grown in mammary epithelial cell growth medium (MEGM; Lonza, Walkersville, Md.) and treated with 20 ng/ml TNFα (BD Biosciences, San Jose, Calif.). Transfection of the MCF-10A cells with siRNA pools (Dharmacon, Lafayette, Colo.) was performed in the presence of Lipofectamine 2000 (Invitrogen, Carlsbad, Calif.). Cells were treated with 5 μM MUC1/CQC and MUC1/AQA peptides synthesized by the MIT Biopolymer Laboratory (Cambridge, Mass.).
Immunoprecipitation and immunoblotting. Lysates from sub-confluent cells were prepared as described (Ren et al., 2004). Soluble proteins were precipitated with anti-NF-κB p65 (Santa Cruz Biotechnology, Santa Cruz, Calif.). […] Immune complexes were detected with horseradish peroxidase-conjugated secondary antibodies (GE Healthcare Biosciences, Piscataway, N.J.) and enhanced chemiluminescence (GE Healthcare).

pMUC1-Luc reporter = pMUC1-Luc reporter assay in IL-6-stimulated MCF-10A cells; type: cell-based, Human
Description: Luciferase Assays. Cells were transfected with NFκB-Luc (Ahmad et al., 2007) or pMUC1-Luc (Yin et al., 2003) and SV-40-Renilla-Luc (Promega, Madison, Wis.) in the presence of Lipofectamine. After 48 h, the cells were lysed in passive lysis buffer. Lysates were analyzed for firefly and Renilla luciferase activities using the dual luciferase assay kit (Promega).

[10] = system: TNFα-induced MUC1 and Bcl-xL expression; test: Immunoblot of lysates from TNFα-stimulated MCF-10A cells; type: cell-based, Human; conditions: 5 μM peptide added each 24 h for 72 h
Description: Immunoprecipitation and immunoblotting. Lysates from sub-confluent cells were prepared as described (Ren et al., 2004). Soluble proteins were precipitated with anti-NF-κB p65 (Santa Cruz Biotechnology, Santa Cruz, Calif.). The immunoprecipitates and cell lysates were subjected to immunoblotting with anti-p65, anti-p65 (180-306) (Millipore, Billerica, Mass.) anti-MUC1-C (Ab5; Lab Vision, Fremont, Calif.), anti-IκBα (Santa Cruz Biotechnology), anti-Bcl-xL (Santa Cruz Biotechnology) and anti-α-actin (Sigma, St. Louis, Mo.). Immune complexes were detected with horseradish peroxidase-conjugated secondary antibodies (GE Healthcare Biosciences, Piscataway, N.J.) and enhanced chemiluminescence (GE Healthcare).

[11] = system: STAT3 and MUC1-C on the MUC1 promoter; test: ChIP of MUC1 promoter STAT binding site in IL-6-stimulated MCF-10A cells; type: cell-based, Human; conditions: 5 mM peptide added each 24 h for 72 h
MUC1 promoter = test: Constitutive activation of the MUC1 promoter in breast cancer cells; type: cell-based
Description: as §2

[12] = system: MUC1-C levels in the nucleus; test: MUC1-C levels in the nucleus after peptide uptake; type: cell-based; conditions: after uptake of the peptide
Description: as §1

[13] = system: multiple carcinoma cell lines; test: Growth and killing of carcinoma cell lines by L-amino acid MUC1 C-terminal peptides; type: cell-based
Description: GO-203 analogs. The inventors' recent studies have shown that a MUC1 C-terminal peptide (CQCRRKNYGQLDIFP; SEQ ID NO:3) is active in inhibiting growth of multiple carcinoma cell lines. […] However, these MUC1-C-terminal peptides consists of L-amino acids. […] Consequently, they have generated an all-dextro form of the above described shorter MUC1 C-terminal peptide, in which the L-amino acids were changed to D-amino acids (GO-203). Moreover, to determine the minimum amino acid residues from the MUC1-C-terminal region that are required to retain the cell killing activity, they have also generated many different versions of GO-203 as described in FIG. 15.

[14] = tumor bearing mice, 10 and 30 mg/kg/d for 21 d

GO-203: all-dextro form of the shorter MUC1 C-terminal peptide CQCRRKN (SEQ ID NO:53), L-amino acids changed to D-amino acids ([dC][dQ][dC][dR][dR][dK][dN]; cysteine pairing not given here)
growth of ZR-75-1 breast carcinoma cells [1]: significant inhibition of growth

GO-209: shorter GO-203 peptide, SEQ ID NO:54 (CQCR)
growth of ZR-75-1 breast carcinoma cells [1]: significant inhibition of growth

drotrecogin alfa
mortality (severe sepsis): about 25%

GO-208: shorter GO-203 peptide, SEQ ID NO:50 (CQCRR)
growth of ZR-75-1 breast carcinoma cells [1]: significant inhibition of growth

CC(=O)N[C@@H](C)C(=O)N[C@@H](CCCCN)C(=O)N[C@@H](CCCCN)C(=O)N[C@@H](Cc1ccc(O)cc1)C(=O)N[C@@H](CC(C)C)C(=O)N[C@@]1(C)CCCC=CCCCC2(CCCC=CCCC[C@@](C)(C(=O)N[C@@H](CCCNC(=N)N)C(=O)N[C@@H](CCCCN)C(=O)N[C@@H](CC(N)=O)C(=O)N[C@@H](Cc3ccc(O)cc3)C(N)=O)NC(=O)[C@H](CS)NC(=O)[C@H](CCC(N)=O)NC(=O)[C@H](CS)NC2=O)NC(=O)[C@H](C)NC(=O)[C@H](CC(C)C)NC(=O)[C@H](C)NC1=O (stereo partly shown) [GO-200-2B]
induction of cell death [2]: significant induction of cell death

MUC1/CQC: peptide corresponding to MUC1-CD(1-15) (SEQ ID NO:3, CQCRRKNYGQLDIFP) with poly D-arginine transduction domain; inhibitor of MUC1-C oligomerization (cysteine pairing not given here; also: poly D-arginine transduction domain, not placed)
selectivity of dominant-negative activity [3]: selective for carcinoma cells overexpressing MUC1
growth arrest and induction of necrosis [3]: growth arrest and the induction of necrosis
TNFα-induced MUC1-C and NF-κB p65 occupancy of the NF-κB binding motif [4]: decreased
tumor growth following treatment (tumor growth; 50 mg/kg/d for 7 d): tumor growth remains arrested for extended periods
tolerability (tumor growth; [14]): well-tolerated without apparent acute toxicities
tumor growth (tumor growth; [14]): effective in abrogating tumor growth
IL-6-induced interaction between MUC1-C and STAT3 [5]: blocked
interaction between MUC1-CD and STAT3 in vitro [6]: blocked
constitutive occupancy of the MUC1 promoter by MUC1-C and STAT3 [7]: inhibits
interaction between MUC1-CD and NF-κB p65 in vitro [8]: blocked the interaction
oligomerization of MUC1-CD in vitro (MUC1-CD oligomerization): inhibits
TNFα-induced interaction between MUC1-C and NF-κB p65 [9]: blocked
IL-6-induced activation of the pMUC1-Luc reporter (pMUC1-Luc reporter): attenuated
TNFα-induced Bcl-xL expression [10]: attenuated
TNFα-induced MUC1 expression [10]: decreased
IL-6-induced targeting of STAT3 and MUC1-C to the MUC1 promoter [11]: inhibited
constitutive activation of the MUC1 promoter (MUC1 promoter): inhibits
MUC1-C levels in the nucleus [12]: down-regulation

GO-207: shorter GO-203 peptide, SEQ ID NO:4 (CQCRRK)
growth of ZR-75-1 breast carcinoma cells [1]: significant inhibition of growth

CQCRRKN [shorter MUC1-C-terminal peptide consisting of L-amino acids]
killing tumor cells [13]: active

MUC1/AQA: control peptide in which the CQC motif was mutated to AQA (SEQ ID NO:62), with poly D-arginine transduction domain (AQARRKNYGQLDIFP; also: poly D-arginine transduction domain, not placed) [reference compound]
growth arrest and induction of necrosis [3]: not
IL-6-induced interaction between MUC1-C and STAT3 [5]: not
interaction between MUC1-CD and STAT3 in vitro [6]: not
interaction between MUC1-CD and NF-κB p65 in vitro [8]: little if any effect
oligomerization of MUC1-CD in vitro (MUC1-CD oligomerization): did not

CQCRRKNYGQLDIFP
inhibiting growth of multiple carcinoma cell lines [13]: active
